According to US8383578B2, “Peptides, derivatives and analogs thereof, and methods of using same” (CureDM Group Holdings, LLC, priority 2005, dated 2013):
Entries after “also recorded” stand apart in the source; their conditions may differ.

What was measured:
type 1 patients = conditions: cited from earlier work
[1] = dosages up to 10,000 IU/day; cited from earlier work
diabetic patients = conditions: cited from earlier work
[2] = test system: human pancreatic ductal tissue culture; experiment: Insulin production in human pancreatic ductal tissue culture, radioimmunoassay; assay type: cell-based; conditions: 3.3 μM (final culture concentration of 165 nM)
Protocol: (§1) Human pancreatic islet and progenitor fractions were cultured over 10 days, according to standard protocol. Briefly, pancreata from adult human cadaveric organ donors were obtained through the local organ procurement organization. Islets were isolated according to established protocols described by Bonner-Weir and Jamal. (Bonner-Weir et al., Pediatric Diabetes: 2004; 5(Suppl 2):16-22. Jamal et al., Cell Death Differ. 2005 July; 12(7):702-12).
(§2) Following removal of the organ, cold ischemia time was no more than 8 hours prior to islet isolation. The main pancreatic duct was cannulated and perfused with Liberase HI (Roche Diagnostics). The perfused organ was placed in a closed system (Ricordi Apparatus) and heated to 37° C. to activate the enzyme blend. Following the appearance of free islets in samples, the system was cooled and free tissues were collected and washed. Tissues were applied to a continuous density gradient created using Ficoll (Biochrom KG) in a cell processor (COBE). Free islets with diameters ranging from 75 to 400 μm, determined to be greater than 90% pure by staining with dithizone (Sigma) a zinc chelater, were collected and washed. IHC to detect the presence of amylase and cytokeratin was negative, consistent with the absence of progenitor and exocrine tissue. The progenitor fraction from this separation was also collected for culture.
(§3) Isolated islets were embedded in a type 1 collagen matrix at a density of 2000 islet equivalents/25 cm^2 and cultured in DMEM/F12 containing 10% FBS, 1 μM dexamethasone, 10 ng/ml EGF, 24 mU/ml insulin and 100 ng/ml cholera toxin. Medium was changed every other day. On day 10, culture was continued in the above medium, without the cholera toxin, with neogenic agents and inhibitors at the final concentrations listed below. Medium was changed every other day. Collagen-embedded cultures were harvested by incubating with 0.25 g/L collagenase XI (Sigma) for 30 minutes at 37° C. […]
(§4) Insulin levels were detected by Radioimmunoassay (RIA) from cultures treated with saline only, scrambled peptide, SEQ ID NOs: 7, 3 or 2 and hamster INGAP. […]

[3] = test system: human pancreatic islet tissue; experiment: Insulin production in human pancreatic islet tissue culture, radioimmunoassay; assay type: cell-based; conditions: 1 mM for a final culture concentration of 500 nM
Protocol: as §1, §2, §3, §4

[4] = test system: human pancreatic ductal tissue cultures; experiment: Insulin production in human pancreatic ductal tissue cultures, ELISA; assay type: cell-based; conditions: for insulin production vs Peptide 4 (hamster INGAP) and Peptide 5 (scrambled) (FIG. 4): after 10 days, Rosenberg protocol, samples 5 μg total protein in duplicate; for insulin production vs hamster INGAP and scrambled control (FIG. 7A): two concentrations of peptide (3 μM and 1 mM)
Protocol: (§5) Human pancreatic tissue was treated as described in Example 1 and Insulin production was measured by ELISA assay. FIGS. 4 and 5 show the results of this experiment to show a dose response and to again compare the effect of HIP on the two different fractions of tissue as compared to the hamster INGAP sequence and a scrambled negative peptide sequence. […] The results in FIG. 4 involve the use of 5 μg of each peptide, while the results in FIG. 5 were acquired using 0.002 μg of each peptide.

[5] = test system: human pancreatic islet tissue cultures; experiment: Insulin production in human pancreatic islet tissue cultures, ELISA; assay type: cell-based; conditions: for insulin production vs Peptide 4 (hamster INGAP) and Peptide 5 (scrambled) (FIG. 5): after 10 days, Rosenberg protocol, 0.002 μg of each peptide in duplicate; for insulin production vs hamster INGAP and scrambled control (FIG. 7B): two concentrations of peptide (3 μM and 1 mM)
Protocol: as §5

[6] = test system: human pancreatic progenitor cells; experiment: Islet generation in human ductal tissue culture, inverted microscopy; assay type: cell-based; conditions: ductal/progenitor tissue fraction culture treated with HIP; listed as HIP
Protocol: A human ductal tissue fraction was isolated and cultured as described in Example 1. After 10 days of culture, cells were treated with HIP for four days and observed using inverted microscopy. […] Islets have formed what has previously been described as ductal epithelial cysts and are starting to bud at one end where a progenitor cell resides. […] In this panel the darkening of the budding portion of the ductal epithelial cyst indicates the differentiation of cells consistent with previously shown changes that occur with hamster INGAP treatment in vitro.

NOD mice = experiment: HIP treatment of non-obese diabetic (NOD) mice; assay type: in vivo, mouse; conditions: HIP 1 μg/kg/day to 100 mg/kg/day, protocol example
Source text: Animal Model. The non-obese diabetic (NOD) mouse strain has long been studied as an excellent model of type 1 diabetes because it spontaneously develops a disease that is very similar to the human condition. Delovitch, T. L., and Singh, B. 1997. Immunity. 7:727-738. Diabetes in NOD mice is mediated by inflammatory autoreactive T cells that recognize pancreatic islet antigens and escape central and peripheral tolerance.
Procedure: In a parental colony of NOD mice, incidence of diabetes in female NOD mice is typically 75-90% by 30 weeks but may exceed 90% in some cohorts. […] Doses of HIP range from 1 μg/kg/day to 100 mg/kg/day.
Treatment. Cohorts are treated in 2 arms with 2-4 dose ranges of HIP and a placebo, at a compensated dose for animal size, metabolism and circulation, or about 1/6 the mg/kg equivalence. Arm 1: saline, Arm 2: HIP.
Study Assessment. Blood glucose levels are measured every week with a One Touch II glucose meter (Lifescan). Mice are considered diabetic after 2 consecutive measurements over 300 mg/dl. For histological analysis, pancreases are snap-frozen. Multiple 5-μm sections are stained with hematoxylin and eosin and scored blindly for severity of insulitis as known in the art.

Compound | insulin production vs INGAP peptide and scrambled negative control (FIG. 1) [2] | insulin production vs INGAP peptide and scrambled negative control (FIG. 2) [3] | insulin production vs Peptide 4 (hamster INGAP) and Peptide 5 (scrambled) (FIG. 4) [4] | insulin production vs hamster INGAP and scrambled control (FIG. 7A) [4] | insulin production vs Peptide 4 (hamster INGAP) and Peptide 5 (scrambled) (FIG. 5) [5] | insulin production vs hamster INGAP and scrambled control (FIG. 7B) [5] | other results
CC[C@H](C)[C@H](NC(=O)[C@@H]1CCCN1C(=O)CNC(=O)[C@H](Cc1ccccc1)NC(=O)[C@H](CC(N)=O)NC(=O)[C@H](CC(N)=O)NC(=O)[C@H](CO)NC(=O)[C@H](CO)NC(=O)[C@H](Cc1c[nH]cn1)NC(=O)[C@@H](NC(=O)[C@H](CC(C)C)NC(=O)[C@H](Cc1ccccc1)NC(=O)[C@H](CC(N)=O)NC(=O)[C@H](C)NC(=O)[C@H](CC(C)C)NC(=O)[C@H](CCCNC(=N)N)NC(=O)[C@H](CCC(N)=O)NC(=O)[C@@H](NC(=O)[C@H](C)NC(=O)[C@@H]1CSSC[C@H](NC(=O)[C@@H](N)CCCCN)C(=O)N[C@@H](CC(N)=O)C(=O)N[C@@H]([C@@H](C)O)C(=O)N[C@@H](C)C(=O)N[C@@H]([C@@H](C)O)C(=O)N1)[C@@H](C)O)C(C)C)C(=O)N[C@@H](CC(C)C)C(=O)N1CCC[C@H]1C(=O)N1CCC[C@H]1C(=O)N[C@H](C(=O)N[C@@H](CC(N)=O)C(=O)N[C@H](C(=O)NCC(=O)N[C@@H](CO)C(=O)N[C@@H](CC(N)=O)C(=O)N[C@H](C(=O)N[C@@H](Cc1ccc(O)cc1)C(N)=O)[C@@H](C)O)C(C)C)[C@@H](C)O [Pramlintide] |  |  |  |  |  |  | glycemic excursions and pre-meal insulin requirements (type 1 patients): reduce glycemic excursions
C=C1CC[C@H](O)C/C1=C/C=C1\CCC[C@]2(C)[C@@H]([C@H](C)CCCC(C)C)CC[C@@H]12 [Vitamin D, cholecalciferol] |  |  |  |  |  |  | adverse effects [1]: No adverse effects
IGLHDPSHGTLPNGS (listed as Hamster sp.) [hamster INGAP] |  |  |  |  |  |  | patients with a >50% increase in GAD65 antibody titers (diabetic patients; 300 mg/day treatment group, Phase II study): 22%; C-peptide secretion (diabetic patients; 600 mg/day): increase; effectiveness (diabetic patients; Phase II trial): Little effectiveness; patient drop out due to discomfort and bruising at injection site (diabetic patients; human, in vivo): high drop out; tolerability (diabetic patients; human, in vivo): well tolerated; hemoglobin A1C (diabetic patients; type 2 diabetes patients): fell
IGLHDPTQGTEPNG (listed as Homo sapiens) [HIP2] | increased insulin production | increased insulin production | increased insulin production | increased insulin production | increased insulin production | increased insulin production | 
IGLHDPTQGTEPNGE (listed as Homo sapiens) [HIP3] | increased insulin production | increased insulin production | increased insulin production | increased insulin production | increased insulin production | increased insulin production | new islet structure formation in culture (micrographs) [6]: Morphological changes show islet like structure; also recorded: New islet structure has formed; also recorded: forming a nidus of new insulin producing islets; also recorded: forming insulin producing islet like structure; blood glucose levels (NOD mice): pronounced reduction; insulitis in pancreases (histology) (NOD mice): decreased showing of insulinitis
WIGLHDPTQGTEPNG [HIP1] | increased insulin production | increased insulin production | increased insulin production | increased insulin production | increased insulin production | increased insulin production | 
